Measured values published in patent publication US11160887B2, “Compositions for use in diagnosing and treating melanoma, including metastatic melanoma and methods related to same” (UNM RAINFOREST INNOVATIONS, priority 2008, dated 2021).

Key:
[1] = tested on: B16/F10 pulmonary melanoma metastases; assay type: in vivo, mouse
Method: Metastatic Melanoma Imaging: A pulmonary metastatic melanoma-bearing mouse was used for [^18F]FDG PET imaging 16 days after the cell injection and used for ^111In-DOTA-GlyGlu-CycMSH SPECT/CT imaging on next day (a time interval of 26 h) to compare the difference in detection efficiency between [^18F]FDG and ^111In-DOTA-GlyGlu-CycMSH. The mouse was injected with 35.15 MBq of commercial [^18F]FDG (Biotech, N. Mex.) via the tail vein. At 1 h post-injection, the mouse was anesthetized with 1.5% isoflurane and placed in the prone position near the center of the field of view of small animal PET (LabPET™) (Gamma Medica-Ideas, Sherbrooke, Quebec). A 30-min static scan was acquired, and the image was reconstructed by maximum likelihood estimation method (MLEM). The mouse was returned to the cage for recovery after the ^18F-FDG PET imaging study was completed. The same mouse was injected with 24.05 MBq of ^111In-DOTA-GlyGlu-CycMSH via the tail vein 24 h after the ^18F-FDG PET imaging study. The mouse was anesthetized with 1.5% isoflurane for small animal SPECT/CT (Nano-SPECT/CT®, Bioscan) imaging 2 h post-injection. The 6-min CT imaging was immediately followed by the focused SPECT imaging of lung. The SPECT scans of 24 projections were acquired and total acquisition time was 45 min. After the focused lung imaging, the mouse was sacrificed with CO2 inhalation for whole-body SPECT/CT imaging. The 9-min CT imaging was immediately followed by the SPECT imaging of whole-body. Reconstructed data from SPECT and CT were visualized and co-registered using InVivoScope (Bioscan, Washington D.C.). Necropsy analysis of the mouse was performed to confirm the pulmonary metastatic melanoma lesions after the SPECT/CT imaging studies were completed. To monitor the development of pulmonary melanoma metstases with ^111In-DOTA-GlyGlu-CycMSH, a pulmonary metastatic melanoma-bearing mouse was injected with 10.36 MBq of ^111In-DOTA-GlyGlu-CycMSH through the tail vein for small animal SPECT/CT imaging 20 days after the cell injection. […]

[2] = tested on: melanoma metastases smaller than 5 mm; settings: literature (5); cited from earlier work

## 2-[^18F]fluoro-2-deoxy-D-glucose [[^18F]FDG]
[1]; SPECT/CT 2 h post-injection (111In peptide) or PET 1 h post-injection ([18F]FDG), same mouse, 16-17 days post the cell injection
  detection of pulmonary metastatic melanoma lesions by imaging: failed in identifying the pulmonary melanoma metastases
[1]; mouse, in vivo
  accumulation of activity in normal organs in whole-body image: much higher normal organ accumulation
[2]
  melanoma metastases smaller than 5 mm detected by PET imaging: 23%
